These results are taken from ChEMBL document CHEMBL1140197, “Synthesis, characterization and antibacterial activity of cobalt(III) complexes with pyridine-amide ligands” (Eur J Med Chem, 2008).

Data set [1] in a line: Cytotoxicity against HEK cells assessed as cell viability at 0.73 to 1500 ug/mL after 48 hrs by MTT assay. The note with it: human, hek293, 48 h. The data set is classed as cell-based.
The next data set concerns Proteus vulgaris. Description: Antibacterial activity against clinical isolate resistant Proteus vulgaris after 16 hrs by microbroth dilution method. It is filed as functional, organism-based. In general terms: Broth dilution looks for growth in wells or tubes with falling amounts of substance.
A further data set concerns Escherichia coli. Description: Antibacterial activity against clinical isolate resistant Escherichia coli after 16 hrs by microbroth dilution method. It is filed as functional, organism-based.
Data set [2] relates to Pseudomonas aeruginosa. The data set is described as follows: Antibacterial activity against Pseudomonas aeruginosa MTCC 1688 after 16 hrs by microbroth dilution method. It is filed as functional, organism-based.
The subject of another data set is Raoultella planticola. The data set is described as follows: Antibacterial activity against Klebsiella planticola MTCC 2272 after 16 hrs by microbroth dilution method. It is filed as functional, organism-based.
Data set [3] deals with Pseudomonas aeruginosa. The data set is described as follows: Antibacterial activity against clinical isolate resistant Pseudomonas aeruginosa after 16 hrs by microbroth dilution method. It is filed as functional, organism-based.
A further data set relates to Shigella flexneri. The data set is described as follows: Antibacterial activity against Shigella flexneri MTCC 1457 after 16 hrs by microbroth dilution method. The data set is classed as functional, organism-based.

With GENTAMICIN [listing 1 of 2 here], in data set [1], the result was Active.
By MIC is commonly meant the smallest concentration in the dilution series that meets the test's criterion for growth inhibition. Take GENTAMICIN [listing 2 of 2 here]: the MIC with Proteus vulgaris is 187 µg/mL; in the data set on Escherichia coli it was 11 µg/mL; against Pseudomonas aeruginosa [2] it was 1.46 µg/mL; in the data set on Raoultella planticola, 1.46 µg/mL; in the data set with Pseudomonas aeruginosa [3], 5.5 µg/mL; in the data set on Shigella flexneri, 1.46 µg/mL.
